Key:
U87 cells = experiment: U87 cell assay (antiproliferative/cytotoxicity); assay type: cell-based; details: U-87MG human glioblastoma cells
Description: (§1) The H460, MB453, U87, MCF7 and BT474 alamarBlue cell assays provide EC50 values indicative of the antiproliferative or cytotoxic effects of the compounds to respectively the H460 (human non small cell line cancer), MB-453 (breast cancer cell line), U87 (glioblastoma cell line), MCF7 (breast cancer cell line) and BT474 (breast cancer cell line). As known in the field, antiproliferative or cytotoxic effect against this cell lines would be expected to be indicative of activity in treating lung, breast and brain cancers. See R. Marone R et al. Biochim. Biophys. Acta. 2008 January; 1784(1):159-85. S. Yaguchi et al., J. Natl. Cancer Inst. 2006 Apr. 19; 98(8):545-56.
(§2) Method Type: Antiproliferative/Cytotoxicity
(§3) alamarBlue® is designed to provide a rapid and sensitive measure of cell proliferation and cytotoxicity in various human and animal cell lines. The assay is based on the reduction of alamarBlue in the reducing environment of living (metabolically active) cells. In the presence of added cytotoxic or antiproliferative compounds, the innate metabolic activity ceases.
(§4) AlamarBlue is soluble and stable in culture medium. Measurements are made fluorometrically by exciting at 530-560 nm and measuring emission at 590 nm. In reporting percent alamarBlue reduction by monitoring fluorescence, data are expressed as fluorescence emission intensity units as a function of time of incubation.
(§5) 3. Equipment • 96-well plates, flat bottom (Falcon, Cat. No.: 353072) • 96-well plates, U-shaped (Costar, Cat. No.: 3799) • CO2-Incubator • Microplate Reader, Spectramax Plus, Molecular Devices 4. Typical Procedure • Day 0: Seed 3000 BT-474 cells (IMDM/5% FCS, 1% NEAA, 1% Sodiumpyruvat) in 150 μl medium into a 96-well plate, flat bottom (include mediumblank). Incubate plates at 37° C. in a CO2 incubator overnight. • Day 1: Dilute compounds to a concentration 40 μM->1:3 in medium, 10 dilution steps, in 96-well plates. • Add 50 μl per well of each dilution (total volume per well 200 μl; final conc. of cpds: 10 μM->1:3). If required, test further dilutions. • All concentrations are tested in duplicates. • Controls: Cells w/o cpd. (+50 μl medium/DMSO). • Cells are incubated with compounds for 5-6 days. • Day 6 or 7: Add 25 μl of alamarBlue solution to each well and incubate for 8 hours at 37° C. Measure fluorescence by exciting at 530-560 nm and measuring emission at 590 nm. 5. Evaluation • Subtract average value for medium blank from sample readings • Calculate EC50 using GraphPad Prism (Fifty)

MB453 cells = experiment: alamarBlue MB453 cell assay (antiproliferative/cytotoxicity); assay type: cell-based; details: Homo sapiens; MDA MB 453 breast cancer cell line
Description: as §1, §2, §3, §4, §5

MCF7 cells = experiment: alamarBlue MCF7 cell assay (antiproliferative/cytotoxicity); assay type: cell-based; details: MCF7 human breast cancer cell line
Description: as §1, §2, §3, §4, §5

PI3Kalpha = PI3Kalpha (Homo sapiens (Human), UniProt P42336); experiment: Inhibition of PI3Kalpha-induced PIP-2 phosphorylation (filter-binding assay); assay type: biochemical; details: 33P-ATP, p85alpha/His-p110alpha, read-out: IC50 PI3Kα
PI3Kalpha, sequence (P42336 whole entry): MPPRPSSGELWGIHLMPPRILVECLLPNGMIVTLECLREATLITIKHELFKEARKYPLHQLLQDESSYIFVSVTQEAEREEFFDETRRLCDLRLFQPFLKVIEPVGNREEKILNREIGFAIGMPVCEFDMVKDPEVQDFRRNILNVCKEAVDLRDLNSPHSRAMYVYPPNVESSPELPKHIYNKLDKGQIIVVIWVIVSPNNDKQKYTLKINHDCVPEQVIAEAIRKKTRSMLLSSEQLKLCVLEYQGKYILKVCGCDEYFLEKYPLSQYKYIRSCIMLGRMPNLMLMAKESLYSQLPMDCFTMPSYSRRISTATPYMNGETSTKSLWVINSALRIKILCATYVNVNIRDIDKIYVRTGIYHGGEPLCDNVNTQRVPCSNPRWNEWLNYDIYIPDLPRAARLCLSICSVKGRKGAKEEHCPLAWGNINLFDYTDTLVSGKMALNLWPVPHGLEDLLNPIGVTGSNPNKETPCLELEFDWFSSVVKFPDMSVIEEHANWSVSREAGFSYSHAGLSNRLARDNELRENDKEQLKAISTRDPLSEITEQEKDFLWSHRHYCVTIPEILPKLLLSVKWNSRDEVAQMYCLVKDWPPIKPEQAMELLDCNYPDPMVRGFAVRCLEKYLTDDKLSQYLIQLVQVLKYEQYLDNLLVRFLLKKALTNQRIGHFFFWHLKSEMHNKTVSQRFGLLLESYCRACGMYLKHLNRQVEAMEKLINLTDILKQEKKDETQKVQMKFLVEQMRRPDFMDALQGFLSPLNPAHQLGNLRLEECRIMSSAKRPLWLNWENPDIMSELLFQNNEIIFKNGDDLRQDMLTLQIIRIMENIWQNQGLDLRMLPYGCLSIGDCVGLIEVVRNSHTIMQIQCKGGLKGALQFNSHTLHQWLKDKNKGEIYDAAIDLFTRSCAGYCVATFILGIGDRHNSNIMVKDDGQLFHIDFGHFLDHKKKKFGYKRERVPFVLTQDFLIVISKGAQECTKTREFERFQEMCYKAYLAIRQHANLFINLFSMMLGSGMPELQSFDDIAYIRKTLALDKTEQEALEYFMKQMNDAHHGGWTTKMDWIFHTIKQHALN
Description: Inhibition of PI3Kalpha-Induced PIP-2 Phosphorylation
This PI3Kalpha assay provides an IC50 value indicative of the activity of the compounds to inhibit PI3 kinase alpha activity. Inhibition of PI3 kinase would be expected to be indicative of activity in treating conditions of excessive or anomalous cell proliferation, such as cancers. See also J. A. Engelman, Nature Reviews Cancer, 2009, 9, 550-562; A. Carnero, Expert Opin. Investig. Drugs, 2009, 18, 1265-1277 and P. Liu et al., Nature Reviews Drug Discovery, 2009, 8, 627-64.
Method Type: Filter-Binding-Assay
Aliquoted in desired amounts and stored at −80° C. Final assay concentration 25 ng/well • Phosphotyrosin PDGFRbeta-peptide H-CGG-pY-[…]-pY-VPMLDM-NH2 was synthesized by Jerini Peptide Technologies (JPT) and used in a final conc. of 1.7 μM (stock 100 μM prepared in Assay buffer with DTT, aliquoted in desired amounts and stored at −80° C.) • Cold ATP (from Sigma; A-7699), 100 μM stock solution in H2O, use 1 μM final concentration in assay • [33P]-ATP, 370 MBq/ml from Amersham (#AH9968), use 0.5 μCi/well (10 mCi/ml) • Clear 96-well plates from Greiner (#655 162) • Filter plates: Perkin Elmer UniFilter GF/B #6005177 • Microscint 0 (from Perkin Elmer, #6013611) 2. Assay Procedure
The substrate-containing lipid vesicles are dissolved to a concentration of 0.637 mg lipid blend/ml assay buffer (with BSA, freshly added) in 50 ml Falcon->keep on ice, followed by ultrasonication (pulse of 15 sec followed by a pause of 10 sec, 4×). Compounds are serially diluted in assay buffer+6% DMSO and […] of each dilution is added per well of a 96-well plate (compounds are tested in duplicates) and mixed with 30 μl of the lipid vesicles containing PDGFR-Peptide ([…]) and PI3K alpha (25 ng/well final). The mixture is then incubated for 20 minutes at room temperature. Subsequently, 20 μl of assay buffer containing […] cold ATP and 0.5 μCi/20 μl 33P-ATP are added. The plates are then incubated at room temperature for 120 minutes (shaking with 300 rpm).
The reaction mix is transferred onto filter plates using “filtermate harvester” from Packard: filter plates are rinsed with PBS, then the reaction mix is filtered onto the filter plate, washed 5 times with PBS and are allowed to dry for 30-60 minutes at 50° C.
The plate bottom is sealed with Perkin Elmer white adhesive foil and 25 μl/well Microscint( ) are added, the top is covered with transparent adhesive foil and the plate is measured with Wallac Trilux 1450 Microbeta Counter.
As positive control serve wells containing vehicle controls (1% DMSO in assay buffer), showing non-inhibited kinase activity (high values). Wells containing assay buffer instead of enzyme can serve as control for background activity (low values).
Calculate IC50 values using the Smiley program (based on GrapPad Prism)

BT474 cells = experiment: alamarBlue BT474 cell assay (antiproliferative/cytotoxicity); assay type: cell-based; details: BT-474 human breast cancer cell line
Description: as §1, §2, §3, §4, §5

H460 cells = experiment: alamarBlue H460 cell assay (antiproliferative/cytotoxicity); assay type: cell-based; details: NCI-H460; H460 human lung carcinoma cells
Description: as §1, §2, §3, §4, §5

Compound	EC50 (U87 cells) [nM]	EC50 (MB453 cells) [nM]	EC50 (MCF7 cells) [nM]	IC50 (PI3Kalpha) [nM]	EC50 (BT474 cells) [nM]	EC50 (H460 cells) [nM]
COc1cccc(S(=O)(=O)Nc2cc(C#Cc3c(C)ncnc3N3CCOCC3)cnc2C)c1 [Example I-4, 3-Methoxy-N-[2-methyl-5-(4-methyl-6-morpholin-4-yl-pyrimidin-5-ylethynyl)-pyridin-3-yl]-benzenesulfonamide]	467	294	296	1	246	114
Cc1ncc(C#Cc2c(C)ncnc2N2CCOCC2)cc1NS(=O)(=O)c1cn(C)c(C)n1 [Example I-55, 1,2-Dimethyl-1H-imidazole-4-sulfonic acid [2-methyl-5-(4-methyl-6-morpholin-4-yl-pyrimidin-5-ylethynyl)-pyridin-3-yl]-amide]	1980	1680	208	1	1550	1180
Cc1ncc(C#Cc2c(C)ncnc2N2CCOCC2)cc1NS(=O)(=O)c1ccc(F)cc1 [Example I-30, 4-Fluoro-N-[2-methyl-5-(4-methyl-6-morpholin-4-yl-pyrimidin-5-ylethynyl)-pyridin-3-yl]-benzenesulfonamide]	385	148	21	0.43	122	230
Cc1ncc(C#Cc2c(C)ncnc2N2CCOCC2)cc1NS(=O)(=O)c1cc(F)cc(F)c1 [Example I-31, 3,5-Difluoro-N-[2-methyl-5-(4-methyl-6-morpholin-4-yl-pyrimidin-5-ylethynyl)-pyridin-3-yl]-benzenesulfonamide]	609	245	50	0.97	178	509
Cc1ncc(C#Cc2c(C)ncnc2N2CCOCC2)cc1NS(=O)(=O)C1CCCCC1 [Example I-39, Cyclohexanesulfonic acid [2-methyl-5-(4-methyl-6-morpholin-4-yl-pyrimidin-5-ylethynyl)-pyridin-3-yl]-amide]	2910	1790	1290	5	2770	1850
Cc1ncc(C#Cc2c(C)ncnc2N(C)C2CCOCC2)cc1NS(=O)(=O)c1ccc(F)cc1F [Example I-16, 2,4-Difluoro-N-(2-methyl-5-{4-methyl-6-[methyl-(tetrahydro-pyran-4-yl)-amino]-pyrimidin-5-ylethynyl}-pyridin-3-yl)-benzenesulfonamide]	839	397	118	0.86	309	226
CCc1ncnc(N2CCN(C3CC3)CC2)c1C#Cc1cnc(C)c(NS(=O)(=O)c2ccc(F)cc2)c1 [Example I-28, N-{5-[4-(4-Cyclopropyl-piperazin-1-yl)-6-ethyl-pyrimidin-5-ylethynyl]-2-methyl-pyridin-3-yl}-4-fluoro-benzenesulfonamide]	14400	1850	10000	5	10000	756
CCc1ncnc(N2CCC(O)CC2)c1C#Cc1cnc(C)c(NS(=O)(=O)c2ccc(F)cc2)c1 [Example I-66, N-{5-[4-Ethyl-6-(4-hydroxy-piperidin-1-yl)-pyrimidin-5-ylethynyl]-2-methyl-pyridin-3-yl}-4-fluoro-benzenesulfonamide]	540	175	145	0.48	91	444
Cc1ncc(C#Cc2c(C)ncnc2N2CCOCC2)cc1NS(=O)(=O)c1cccnc1 [Example I-54, Pyridine-3-sulfonic acid [2-methyl-5-(4-methyl-6-morpholin-4-yl-pyrimidin-5-ylethynyl)-pyridin-3-yl]-amide]	581	274	44	1	949	553
CC(=O)N1CCCN(c2ncnc(C)c2C#Cc2cnc(C)c(NS(=O)(=O)c3ccccc3)c2)CC1 [Example I-62, N-{5-[4-(4-Acetyl-[1,4]diazepan-1-yl)-6-methyl-pyrimidin-5-ylethynyl]-2-methyl-pyridin-3-yl}-benzenesulfonamide]	1290	969	709	3	4050	1740
Cc1ncc(C#Cc2c(C)ncnc2N2CCOCC2)cc1NS(=O)(=O)c1ccccc1 [Example I-40, N-[2-Methyl-5-(4-methyl-6-morpholin-4-yl-pyrimidin-5-ylethynyl)-pyridin-3-yl]-benzenesulfonamide]	386	145	49	0.28	147	120
COc1ncc(C#Cc2c(C)ncnc2N2CCOCC2)cc1NS(=O)(=O)c1ccc(F)cc1F [Example I-29, 2,4-Difluoro-N-[2-methoxy-5-(4-methyl-6-morpholin-4-yl-pyrimidin-5-ylethynyl)-pyridin-3-yl]-benzenesulfonamide]	84	28	3	0.44	10	11
CC(=O)N1CCN(c2ncnc(C)c2C#Cc2cnc(C)c(NS(=O)(=O)c3ccccc3)c2)CC1 [Example I-61, N-{5-[4-(4-Acetyl-piperazin-1-yl)-6-methyl-pyrimidin-5-ylethynyl]-2-methyl-pyridin-3-yl}-benzenesulfonamide]	631	262	39	2	1120	791
Cc1ncnc(N2CCOCC2)c1C#Cc1cncc(NS(=O)(=O)c2ccc(F)cc2F)c1 [Example I-20, 2,4-Difluoro-N-[5-(4-methyl-6-morpholin-4-yl-pyrimidin-5-ylethynyl)-pyridin-3-yl]-benzenesulfonamide]	521	281	22	0.46	153	391

From patent publication US8598157B2, “5-alkynyl-pyridines” (Boehringer Ingelheim International GmbH, priority 2011, dated 2013)
